Results published in paper PMC4503722, “Novel Phenotypic Outcomes Identified for a Public Collection of Approved Drugs from a Publicly Accessible Panel of Assays” (PLoS ONE, 2015).
Where two headings read alike, the source gives them in different places.

Key:
NCI-H716 cells = assay: cells; format: cell-based, Human; details: for IC50/EC50, hNCI-H716 GLP1 Secretion (assay number 12): concentration response
STC-1 cell line = format: cell-based, mouse; details: for IC50/EC50, mSTC-1 GLP1 Secretion (assay number 13): concentration response
DLD-1 = assay: cells; format: cell-based
HCT116 = assay: cells; format: cell-based
Colo320 = assay: cells; format: cell-based
HT-29 = assay: cells; format: cell-based
RKO = assay: cells; format: cell-based
SNU-C1 = assay: cells; format: cell-based
[1] = system: endothelial tube formation in co-cultures of ECFCs and ADSCs treated with VEGF; assay: cells; format: cell-based, human
[2] = system: ECFC/ADSC co-culture cell nuclei number
SW480 = assay: cells; format: cell-based
HeLa cells = assay: cells; format: cell-based

Structure (SMILES)	hNCI-H716 GLP1 Secretion IC50/EC50 (NCI-H716 cells; assay number 12)	mSTC-1 GLP1 Secretion IC50/EC50 (STC-1 cell line; assay number 13)	VEGF_ADSC\ECFC Angio CD31 TubeArea IC50/EC50 [1]	VEGF_ADSC\ECFC Angio Hoechst NucArea IC50/EC50 [2]	further results
OC1(c2ccc(Cl)c(C(F)(F)F)c2)CCN(CCCC(c2ccc(F)cc2)c2ccc(F)cc2)CC1 [NCGC00165865-02]	8.448 µM	> 40 µM			Basal_Viability ATP DLD-1 IC50/EC50 (DLD-1; assay number 23, basal): 1.1393 µM; Basal_Viability ATP HCT116 IC50/EC50 (HCT116; assay number 25, basal): 1.853 µM; Basal_Viability ATP Colo 320 IC50/EC50 (Colo320; assay number 27, basal): 0.9617 µM; Basal_Viability ATP HT-29 IC50/EC50 (HT-29; assay number 28, basal): 0.9459 µM; Basal_Viability ATP RKO IC50/EC50 (RKO; assay number 29, basal): 0.9712 µM; Basal_Viability ATP SNU-C1 IC50/EC50 (SNU-C1; assay number 30, basal): 0.1675 µM
CC1=C(C(=O)OC(C)C)C(c2cccc([N+](=O)[O-])c2)C(C(=O)OC2CN(C(c3ccccc3)c3ccccc3)C2)=C(N)N1 (stereo not drawn) [NCGC00167436-02]	12.7519 µM	1.234 µM	3.5833 µM	7.394 µM	
Clc1ccc(CSC(Cn2ccnc2)c2ccc(Cl)cc2Cl)cc1.O=[N+]([O-])O (stereo not drawn) [NCGC00018250-06]	20.9915 µM	> 40 µM	2.1282 µM	8.757 µM	
O=C(Nc1ccc(Oc2ccc(Cl)cc2)c(Cl)c1)c1cc(I)cc(I)c1O [NCGC00160556-02]			> 10 µM	6.571 µM	hNCI-H716 GLP1 Secretion IC50/EC50 (NCI-H716 cells): > 40 µM; mSTC-1 GLP1 Secretion IC50/EC50 (STC-1 cell line): 1.3019 µM; Basal_Viability ATP DLD-1 IC50/EC50 (DLD-1): 0.0084 µM; Basal_Viability ATP SW480 IC50/EC50 (SW480): 0.0108 µM; Basal_Viability ATP HCT116 IC50/EC50 (HCT116): 0.01695 µM; Basal_Viability ATP Colo 320 IC50/EC50 (Colo320): 0.054 µM; Basal_Viability ATP HT-29 IC50/EC50 (HT-29): 0.0095 µM; Basal_Viability ATP RKO IC50/EC50 (RKO): 0.0303 µM; Basal_Viability ATP SNU-C1 IC50/EC50 (SNU-C1): 0.0143 µM
O=C(O)C[CH2][Ge](=[O])[O][Ge](=[O])[CH2]CC(=O)O [NCGC00164525-02]	1.5271 µM	0.7932 µM	0.1546 µM	0.2606 µM	Hela CellCycMod PI 2N IC50/EC50 (HeLa cells; assay number 14, 2N): > 10 µM; Hela CellCycMod PI S Phase IC50/EC50 (HeLa cells; assay number 15, S phase): > 10 µM; Hela CellCycMod PI 4N IC50/EC50 (HeLa cells; assay number 16, 4N): > 10 µM; Hela CellCycMod PI MI IC50/EC50 (HeLa cells; assay number 17, MI): > 10 µM; Hela CellCycMod PI Cell Number IC50/EC50 (HeLa cells; assay number 18, cell number): 0.5034 µM
COc1cc2nc(N3CCN(C(=O)C4COc5ccccc5O4)CC3)nc(N)c2cc1OC.CS(=O)(=O)O (stereo not drawn) [NCGC00018158-09]	> 40 µM	10.6547 µM	> 10 µM	> 10 µM	
[O-][S+](c1cc(Cl)cc(Cl)c1O)c1cc(Cl)cc(Cl)c1O [NCGC00160554-02]	19.7164 µM	> 40 µM	> 10 µM	> 10 µM	
CCCCCCCCCCCCCCCC[N+](C)(C)CCN(Cc1ccc(OC)cc1)c1ncccn1.[Br-] [NCGC00016507-05]	17.7844 µM	> 40 µM	3.0741 µM	> 10 µM	Hela CellCycMod PI 2N IC50/EC50 (HeLa cells; assay number 14, 2N): > 10 µM; Hela CellCycMod PI 4N IC50/EC50 (HeLa cells; assay number 16, 4N): > 10 µM; Hela CellCycMod PI MI IC50/EC50 (HeLa cells; assay number 17, MI): > 10 µM; Hela CellCycMod PI Cell Number IC50/EC50 (HeLa cells; assay number 18, cell number): 0.3488 µM
CC(C)(C)CC(C)(C)c1ccc(O)cc1 [NCGC00164127-07]	25.8625 µM	8.3699 µM	> 10 µM	9.1112 µM	
O=C(Nc1ccc(S(=O)(=O)N2CCOCC2)cc1)c1cc(Cl)ccc1NS(=O)(=O)c1ccc(Cl)s1 [NCGC00249417-02]	> 40 µM	> 40 µM	> 10 µM	> 10 µM	
Cl.Nc1cc(C(F)(F)F)ccc1S [NCGC00262926-01]	15.3214 µM	1.1561 µM	> 10 µM	> 10 µM	
CC(O)C(=O)O.CCCCCCCCCCCCCCNCCO [NCGC00164503-02]	13.5546 µM	> 20 µM	> 10 µM	9.1871 µM	
O=c1[nH]sc2cc(Cl)ccc12 [NCGC00262908-01]					IC50/EC50, VEGF_ADSC\ECFC Angio CD31 TubeArea (assay number 2) [1]: > 10 µM; IC50/EC50, hNCI-H716 GLP1 Secretion (assay number 12) (NCI-H716 cells): > 40 µM; IC50/EC50, mSTC-1 GLP1 Secretion (assay number 13) (STC-1 cell line): > 40 µM; IC50/EC50, VEGF_ADSC\ECFC Angio Hoechst NucArea (assay number 3) [2]: 9.427 µM
Cc1cc(C(C)(C)CC(C)(C)C)ccc1OCCOCC[N+](C)(C)Cc1ccccc1 [NCGC00016789-06]	12.042 µM	> 40 µM	> 10 µM	8.703 µM	
CCCCCCCC/C=C\CCCCCCCCN [NCGC00164329-03]	14.7555 µM	> 40 µM	> 10 µM	9.128 µM	
C[n+]1cc2c3c(ccc2c2ccc4cc5c(cc4c21)OCO5)OCO3 [NCGC00015959-09]			0.5372 µM	0.9705 µM	hNCI-H716 GLP1 Secretion IC50/EC50 (NCI-H716 cells): > 40 µM; mSTC-1 GLP1 Secretion IC50/EC50 (STC-1 cell line): > 40 µM; Basal_Viability ATP DLD-1 IC50/EC50 (DLD-1): 0.5755 µM; Basal_Viability ATP SW480 IC50/EC50 (SW480): 0.3789 µM; Basal_Viability ATP HCT116 IC50/EC50 (HCT116): 0.5253 µM; Basal_Viability ATP Colo 320 IC50/EC50 (Colo320): 0.3498 µM; Basal_Viability ATP RKO IC50/EC50 (RKO): 0.2646 µM; Basal_Viability ATP SNU-C1 IC50/EC50 (SNU-C1): 0.3161 µM
Clc1ccc(CO/N=C(\Cn2ccnc2)c2ccc(Cl)cc2Cl)c(Cl)c1.O=[N+]([O-])O [NCGC00177980-03]	> 40 µM	> 40 µM	> 10 µM	8.846 µM	
CCc1oc2ccccc2c1C(=O)c1cc(Br)c(O)c(Br)c1 [NCGC00013895-08]			> 10 µM	> 10 µM	hNCI-H716 GLP1 Secretion IC50/EC50 (NCI-H716 cells): > 40 µM; mSTC-1 GLP1 Secretion IC50/EC50 (STC-1 cell line): > 40 µM; Hela CellCycMod PI 2N IC50/EC50 (HeLa cells): > 10 µM; Hela CellCycMod PI 4N IC50/EC50 (HeLa cells): > 10 µM; Hela CellCycMod PI Cell Number IC50/EC50 (HeLa cells): > 10 µM; Hela CellCycMod PI MI IC50/EC50 (HeLa cells): > 10 µM; Hela CellCycMod PI S Phase IC50/EC50 (HeLa cells): > 10 µM; Basal_Viability ATP DLD-1 IC50/EC50 (DLD-1): 0.2675 µM; Basal_Viability ATP SW480 IC50/EC50 (SW480): 1.7408 µM; Basal_Viability ATP HCT116 IC50/EC50 (HCT116): 1.057 µM; Basal_Viability ATP Colo 320 IC50/EC50 (Colo320): > 20 µM; Basal_Viability ATP HT-29 IC50/EC50 (HT-29): 1.1416 µM; Basal_Viability ATP RKO IC50/EC50 (RKO): 0.1312 µM; Basal_Viability ATP SNU-C1 IC50/EC50 (SNU-C1): 0.1053 µM
C[C@@H](NCCCc1cccc(C(F)(F)F)c1)c1cccc2ccccc12.Cl [NCGC00181002-04]	17.1869 µM	> 40 µM	> 10 µM	> 10 µM	
Clc1ccccc1C(c1ccccc1)(c1ccccc1)n1ccnc1 [NCGC00015251-13]					IC50/EC50, VEGF_ADSC\ECFC Angio CD31 TubeArea (assay number 2) [1]: 3.0384 µM; IC50/EC50, hNCI-H716 GLP1 Secretion (assay number 12) (NCI-H716 cells): 20.2249 µM; IC50/EC50, mSTC-1 GLP1 Secretion (assay number 13) (STC-1 cell line): > 40 µM; IC50/EC50, Hela CellCycMod PI 2N (assay number 14) (HeLa cells; 2N): > 10 µM; IC50/EC50, Hela CellCycMod PI 4N (assay number 16) (HeLa cells; 4N): > 10 µM; IC50/EC50, Hela CellCycMod PI Cell Number (assay number 18) (HeLa cells; Cell Number): > 10 µM; IC50/EC50, Hela CellCycMod PI MI (assay number 17) (HeLa cells; MI): > 10 µM; IC50/EC50, Hela CellCycMod PI S Phase (assay number 15) (HeLa cells; S Phase): > 10 µM; IC50/EC50, VEGF_ADSC\ECFC Angio Hoechst NucArea (assay number 3) [2]: > 10 µM
CCN(CC)CCOC(=O)C(Cc1cccc2ccccc12)CC1CCCO1 (stereo not drawn) [NCGC00178213-05]	> 40 µM	> 40 µM			
CCCCCCCCCCCCCCCCCCOCC(O)CO (stereo not drawn) [NCGC00095748-04]	> 40 µM	> 40 µM			
CC(=O)OC(C)C[N+](C)(C)C.[Cl-] (stereo not drawn) [NCGC00015045-09]	> 40 µM	> 40 µM			
CN(C)[C@@H]1C(=O)C(C(=O)NCN2CCCC2)=C(O)[C@@]2(O)C(=O)C3=C(O)c4c(O)cccc4[C@@](C)(O)[C@H]3C[C@@H]12 [NCGC00263906-02]	> 40 µM	> 40 µM			
CC[C@H](C)C(=O)O[C@H]1C[C@@H](C)C=C2C=C[C@H](C)[C@H](CC[C@@H]3C[C@@H](O)CC(=O)O3)[C@H]21 [NCGC00023509-13]	32.895 µM	> 40 µM	3.2658 µM	> 10 µM	Hela CellCycMod PI 2N IC50/EC50 (HeLa cells; assay number 14, 2N): > 10 µM; Hela CellCycMod PI S Phase IC50/EC50 (HeLa cells; assay number 15, S phase): > 10 µM; Hela CellCycMod PI 4N IC50/EC50 (HeLa cells; assay number 16, 4N): > 10 µM; Hela CellCycMod PI MI IC50/EC50 (HeLa cells; assay number 17, MI): > 10 µM; Hela CellCycMod PI Cell Number IC50/EC50 (HeLa cells; assay number 18, cell number): > 10 µM
CCCCCCCCCCCCOCCOCCOCCOCCOCCOCCOCCOCCOCCO [NCGC00166290-03]	> 40 µM	30.3683 µM			
CCOC(=O)[C@@H](N)CS.Cl [NCGC00166061-02]					IC50/EC50, hNCI-H716 GLP1 Secretion (assay number 12) (NCI-H716 cells): > 40 µM; IC50/EC50, mSTC-1 GLP1 Secretion (assay number 13) (STC-1 cell line): 14.3442 µM
